In PubChem BioAssay AID1982 (Sanford-Burnham Center for Chemical Genomics, 2009):
Calls of active or inactive are those of the source. The rule behind the calls is not given here.

How the values were obtained:
Assay in all cases: kinase panel binding selectivity, selectivity assay, biochemical, KINOMEscan (AID 1982)
TTK = conditions: KINOMEscan 353-kinase binding panel, qPCR, at 10 µM, stronger effect = lower value
RIOK2 = conditions: KINOMEscan 353-kinase binding panel, qPCR, at 10 µM, stronger effect = lower value
NEK5 = conditions: KINOMEscan 353-kinase binding panel, qPCR, at 10 µM, stronger effect = lower value
[1] = target: Calcium/calmodulin-dependent protein kinase type II subunit delta (Homo sapiens) (UniProt Q13557); conditions: KINOMEscan 353-kinase binding panel, qPCR; CAMK2D; at 10 µM; stronger effect = lower value
ADCK4 = conditions: KINOMEscan 353-kinase binding panel, qPCR, at 10 µM, stronger effect = lower value
[2] = target: Serine/threonine-protein kinase MRCK alpha (Homo sapiens) (UniProt Q5VT25); conditions: KINOMEscan 353-kinase binding panel, qPCR; MRCKA; at 10 µM; stronger effect = lower value
[3] = target: Tyrosine-protein kinase SYK (Homo sapiens) (UniProt P43405); conditions: KINOMEscan 353-kinase binding panel, qPCR, at 10 µM, stronger effect = lower value
TXK = conditions: KINOMEscan 353-kinase binding panel, qPCR, at 10 µM, stronger effect = lower value
SRPK3 = conditions: KINOMEscan 353-kinase binding panel, qPCR, at 10 µM, stronger effect = lower value
[4] = target: Testis-specific serine/threonine-protein kinase 1 (Homo sapiens) (UniProt Q9BXA7); conditions: KINOMEscan 353-kinase binding panel, qPCR; TSSK1; at 10 µM; stronger effect = lower value
MERTK = conditions: KINOMEscan 353-kinase binding panel, qPCR, at 10 µM, stronger effect = lower value
[5] = target: Mitogen-activated protein kinase 10 (Homo sapiens) (UniProt P53779); conditions: KINOMEscan 353-kinase binding panel, qPCR; JNK3; at 10 µM; stronger effect = lower value
[6] = target: Tyrosine-protein kinase BTK (Homo sapiens) (UniProt Q06187); conditions: KINOMEscan 353-kinase binding panel, qPCR, at 10 µM, stronger effect = lower value
DRAK2 = conditions: KINOMEscan 353-kinase binding panel, qPCR, at 10 µM, stronger effect = lower value
LATS2 = conditions: KINOMEscan 353-kinase binding panel, qPCR, at 10 µM, stronger effect = lower value
[7] = target: Serine/threonine-protein kinase NLK (Homo sapiens) (UniProt Q9UBE8); conditions: KINOMEscan 353-kinase binding panel, qPCR, at 10 µM, stronger effect = lower value
[8] = target: Glycogen synthase kinase-3 alpha (Homo sapiens) (UniProt P49840); conditions: KINOMEscan 353-kinase binding panel, qPCR; GSK3A; at 10 µM; stronger effect = lower value
[9] = target: Ribosomal protein S6 kinase alpha-5 (Homo sapiens) (UniProt O75582); conditions: KINOMEscan 353-kinase binding panel, qPCR, at 10 µM, stronger effect = lower value
MLK1 = conditions: KINOMEscan 353-kinase binding panel, qPCR, at 10 µM, stronger effect = lower value
[10] = target: Phosphatidylinositol 5-phosphate 4-kinase type-2 beta (Homo sapiens) (UniProt P78356); conditions: KINOMEscan 353-kinase binding panel, qPCR; PIP5K2B; at 10 µM; stronger effect = lower value
MYLK = conditions: KINOMEscan 353-kinase binding panel, qPCR, at 10 µM, stronger effect = lower value
DCAMKL2 = conditions: KINOMEscan 353-kinase binding panel, qPCR, at 10 µM, stronger effect = lower value
EPHA5 = conditions: KINOMEscan 353-kinase binding panel, qPCR, at 10 µM, stronger effect = lower value
PAK4 = conditions: KINOMEscan 353-kinase binding panel, qPCR, at 10 µM, stronger effect = lower value
TIE1 = conditions: KINOMEscan 353-kinase binding panel, qPCR, at 10 µM, stronger effect = lower value
[11] = target: Serine/threonine-protein kinase 3 (Homo sapiens) (UniProt Q13188); conditions: KINOMEscan 353-kinase binding panel, qPCR; MST2; at 10 µM; stronger effect = lower value
PFTAIRE2 = conditions: KINOMEscan 353-kinase binding panel, qPCR, at 10 µM, stronger effect = lower value
[12] = target: Cyclin-dependent kinase 8 (Homo sapiens) (UniProt P49336); conditions: KINOMEscan 353-kinase binding panel, qPCR; CDK8; at 10 µM; stronger effect = lower value
YANK2 = conditions: KINOMEscan 353-kinase binding panel, qPCR, at 10 µM, stronger effect = lower value
CDC2L2 = conditions: KINOMEscan 353-kinase binding panel, qPCR, at 10 µM, stronger effect = lower value
[13] = target: Serine/threonine-protein kinase PLK1 (Homo sapiens) (UniProt P53350); conditions: KINOMEscan 353-kinase binding panel, qPCR, at 10 µM, stronger effect = lower value
SNARK = conditions: KINOMEscan 353-kinase binding panel, qPCR, at 10 µM, stronger effect = lower value
[14] = target: MAP kinase-activated protein kinase 5 (Homo sapiens) (UniProt Q8IW41); conditions: KINOMEscan 353-kinase binding panel, qPCR; MAPKAPK5; at 10 µM; stronger effect = lower value
[15] = target: Serine/threonine-protein kinase PLK4 (Homo sapiens) (UniProt O00444); conditions: KINOMEscan 353-kinase binding panel, qPCR, at 10 µM, stronger effect = lower value
DDR2 = conditions: KINOMEscan 353-kinase binding panel, qPCR, at 10 µM, stronger effect = lower value
[16] = target: MAP kinase-interacting serine/threonine-protein kinase 2 (Homo sapiens) (UniProt Q9HBH9); conditions: KINOMEscan 353-kinase binding panel, qPCR; MKNK2; at 10 µM; stronger effect = lower value

Measured: percent of control binding

Sequence of Ribosomal protein S6 kinase alpha-5 (Homo sapiens) (O75582 whole entry, looked up): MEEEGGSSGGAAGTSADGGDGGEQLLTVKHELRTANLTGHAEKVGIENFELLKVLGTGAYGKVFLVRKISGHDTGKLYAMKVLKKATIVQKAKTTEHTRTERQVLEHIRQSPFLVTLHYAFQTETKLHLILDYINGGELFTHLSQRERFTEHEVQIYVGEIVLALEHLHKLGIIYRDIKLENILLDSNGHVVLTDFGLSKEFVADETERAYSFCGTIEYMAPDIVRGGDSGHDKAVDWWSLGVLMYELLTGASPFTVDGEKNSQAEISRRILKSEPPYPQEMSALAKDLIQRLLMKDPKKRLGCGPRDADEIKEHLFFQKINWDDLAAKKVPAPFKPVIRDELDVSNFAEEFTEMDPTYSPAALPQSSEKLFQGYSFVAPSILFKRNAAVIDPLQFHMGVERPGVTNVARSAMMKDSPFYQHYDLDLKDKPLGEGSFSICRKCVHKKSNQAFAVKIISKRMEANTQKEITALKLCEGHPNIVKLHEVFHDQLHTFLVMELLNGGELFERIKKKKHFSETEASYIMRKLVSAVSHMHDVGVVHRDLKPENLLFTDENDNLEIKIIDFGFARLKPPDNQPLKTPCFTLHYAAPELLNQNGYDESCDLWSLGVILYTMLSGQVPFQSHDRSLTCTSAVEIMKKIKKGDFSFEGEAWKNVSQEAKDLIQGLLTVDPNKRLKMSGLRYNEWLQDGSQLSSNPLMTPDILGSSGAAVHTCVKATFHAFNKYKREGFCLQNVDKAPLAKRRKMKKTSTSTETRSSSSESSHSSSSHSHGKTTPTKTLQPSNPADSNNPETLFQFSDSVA
Sequence of MAP kinase-activated protein kinase 5 (Homo sapiens) (Q8IW41 whole entry, looked up): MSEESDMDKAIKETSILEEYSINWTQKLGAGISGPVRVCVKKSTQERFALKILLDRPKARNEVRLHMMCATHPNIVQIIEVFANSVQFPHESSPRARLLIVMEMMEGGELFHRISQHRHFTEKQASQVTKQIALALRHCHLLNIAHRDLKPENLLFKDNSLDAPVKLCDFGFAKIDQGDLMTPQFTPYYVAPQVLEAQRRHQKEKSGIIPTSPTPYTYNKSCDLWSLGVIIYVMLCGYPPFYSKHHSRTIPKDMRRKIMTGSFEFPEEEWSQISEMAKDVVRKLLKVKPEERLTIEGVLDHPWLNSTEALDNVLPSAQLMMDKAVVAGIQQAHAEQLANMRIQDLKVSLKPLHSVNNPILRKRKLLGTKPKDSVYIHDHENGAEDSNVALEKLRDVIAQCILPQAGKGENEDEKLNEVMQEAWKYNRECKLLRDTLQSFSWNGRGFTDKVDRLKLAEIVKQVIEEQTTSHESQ
Sequence of Serine/threonine-protein kinase PLK1 (Homo sapiens) (P53350 whole entry, looked up): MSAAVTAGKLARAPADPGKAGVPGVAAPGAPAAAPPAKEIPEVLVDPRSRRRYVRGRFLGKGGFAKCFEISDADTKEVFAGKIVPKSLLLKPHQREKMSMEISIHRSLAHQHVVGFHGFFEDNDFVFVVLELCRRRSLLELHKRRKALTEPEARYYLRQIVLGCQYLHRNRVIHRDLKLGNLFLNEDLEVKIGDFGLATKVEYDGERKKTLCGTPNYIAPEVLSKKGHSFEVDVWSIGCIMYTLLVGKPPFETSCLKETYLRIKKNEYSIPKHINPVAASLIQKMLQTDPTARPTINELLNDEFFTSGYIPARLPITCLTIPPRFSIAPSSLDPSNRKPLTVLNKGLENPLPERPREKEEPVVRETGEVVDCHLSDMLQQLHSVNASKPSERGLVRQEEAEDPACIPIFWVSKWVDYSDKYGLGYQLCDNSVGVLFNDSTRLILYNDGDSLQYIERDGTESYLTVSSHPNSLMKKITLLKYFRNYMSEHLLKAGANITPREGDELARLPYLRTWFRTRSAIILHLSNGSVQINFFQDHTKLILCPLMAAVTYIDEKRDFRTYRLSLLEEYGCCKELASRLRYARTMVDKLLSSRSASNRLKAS
Sequence of Tyrosine-protein kinase BTK (Homo sapiens) (Q06187 whole entry, looked up): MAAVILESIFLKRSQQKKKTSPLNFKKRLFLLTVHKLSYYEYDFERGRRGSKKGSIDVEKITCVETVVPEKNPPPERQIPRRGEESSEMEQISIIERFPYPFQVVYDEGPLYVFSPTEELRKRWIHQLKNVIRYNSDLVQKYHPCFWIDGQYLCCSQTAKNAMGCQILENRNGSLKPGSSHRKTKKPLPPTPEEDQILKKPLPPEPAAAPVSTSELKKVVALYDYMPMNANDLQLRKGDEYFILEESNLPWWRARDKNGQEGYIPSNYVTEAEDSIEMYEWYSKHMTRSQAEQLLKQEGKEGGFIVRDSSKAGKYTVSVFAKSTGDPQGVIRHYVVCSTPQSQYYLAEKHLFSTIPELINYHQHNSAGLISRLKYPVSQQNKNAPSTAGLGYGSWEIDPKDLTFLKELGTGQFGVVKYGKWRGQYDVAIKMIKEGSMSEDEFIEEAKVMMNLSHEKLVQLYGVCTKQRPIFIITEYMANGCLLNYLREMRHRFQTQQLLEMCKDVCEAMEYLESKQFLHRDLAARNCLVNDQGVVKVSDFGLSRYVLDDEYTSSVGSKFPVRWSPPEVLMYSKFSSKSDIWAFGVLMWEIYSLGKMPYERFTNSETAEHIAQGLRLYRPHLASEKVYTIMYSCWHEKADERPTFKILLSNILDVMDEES
Sequence of Glycogen synthase kinase-3 alpha (Homo sapiens) (P49840 whole entry, looked up): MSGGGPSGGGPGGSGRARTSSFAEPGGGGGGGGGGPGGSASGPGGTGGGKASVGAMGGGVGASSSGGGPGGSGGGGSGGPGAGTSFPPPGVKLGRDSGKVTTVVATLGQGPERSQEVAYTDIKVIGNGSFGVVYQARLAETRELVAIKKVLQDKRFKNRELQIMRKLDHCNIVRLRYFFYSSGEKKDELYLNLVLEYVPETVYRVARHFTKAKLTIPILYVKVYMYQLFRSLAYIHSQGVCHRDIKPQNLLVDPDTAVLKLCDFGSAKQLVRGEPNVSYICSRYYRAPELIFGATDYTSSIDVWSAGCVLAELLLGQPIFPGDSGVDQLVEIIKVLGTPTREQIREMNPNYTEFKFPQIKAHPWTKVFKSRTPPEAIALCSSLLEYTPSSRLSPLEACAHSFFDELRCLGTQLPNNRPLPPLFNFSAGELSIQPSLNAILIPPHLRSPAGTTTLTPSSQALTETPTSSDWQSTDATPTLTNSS
Sequence of Calcium/calmodulin-dependent protein kinase type II subunit delta (Homo sapiens) (Q13557 whole entry, looked up): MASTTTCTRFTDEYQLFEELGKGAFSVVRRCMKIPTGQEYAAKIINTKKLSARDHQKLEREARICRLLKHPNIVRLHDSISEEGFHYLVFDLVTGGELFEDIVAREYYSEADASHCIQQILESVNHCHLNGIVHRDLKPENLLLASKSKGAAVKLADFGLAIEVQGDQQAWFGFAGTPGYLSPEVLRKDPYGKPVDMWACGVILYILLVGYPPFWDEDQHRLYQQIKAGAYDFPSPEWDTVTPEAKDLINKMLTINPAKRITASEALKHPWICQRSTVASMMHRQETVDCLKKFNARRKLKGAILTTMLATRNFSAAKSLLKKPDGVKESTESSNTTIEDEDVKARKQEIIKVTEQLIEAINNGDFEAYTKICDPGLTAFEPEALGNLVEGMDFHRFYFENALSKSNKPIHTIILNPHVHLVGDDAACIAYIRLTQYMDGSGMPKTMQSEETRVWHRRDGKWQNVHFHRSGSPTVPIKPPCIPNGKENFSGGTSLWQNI
Sequence of Cyclin-dependent kinase 8 (Homo sapiens) (P49336 whole entry, looked up): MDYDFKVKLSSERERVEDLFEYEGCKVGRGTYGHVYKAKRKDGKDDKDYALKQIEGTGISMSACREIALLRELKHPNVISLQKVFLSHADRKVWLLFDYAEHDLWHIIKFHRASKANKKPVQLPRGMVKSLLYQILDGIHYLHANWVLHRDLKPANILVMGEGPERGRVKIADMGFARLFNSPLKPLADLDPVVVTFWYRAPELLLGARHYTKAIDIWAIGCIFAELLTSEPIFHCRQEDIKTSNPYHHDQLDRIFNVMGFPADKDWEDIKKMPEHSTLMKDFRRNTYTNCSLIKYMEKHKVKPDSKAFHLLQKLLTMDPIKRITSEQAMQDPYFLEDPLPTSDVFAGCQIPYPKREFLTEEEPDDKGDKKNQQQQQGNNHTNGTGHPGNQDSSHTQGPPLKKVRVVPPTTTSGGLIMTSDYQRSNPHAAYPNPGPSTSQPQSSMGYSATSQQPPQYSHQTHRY
Sequence of Testis-specific serine/threonine-protein kinase 1 (Homo sapiens) (Q9BXA7 whole entry, looked up): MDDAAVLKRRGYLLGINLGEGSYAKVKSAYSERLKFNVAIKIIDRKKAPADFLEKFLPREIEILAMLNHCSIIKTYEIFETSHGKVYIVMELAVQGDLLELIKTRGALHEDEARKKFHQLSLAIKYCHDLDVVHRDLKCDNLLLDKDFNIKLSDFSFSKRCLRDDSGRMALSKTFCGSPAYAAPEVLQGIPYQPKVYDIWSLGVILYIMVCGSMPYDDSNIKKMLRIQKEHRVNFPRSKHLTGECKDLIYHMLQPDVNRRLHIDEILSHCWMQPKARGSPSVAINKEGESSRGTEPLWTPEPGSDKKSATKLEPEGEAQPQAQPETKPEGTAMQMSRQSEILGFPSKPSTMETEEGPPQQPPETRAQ
Sequence of Serine/threonine-protein kinase NLK (Homo sapiens) (Q9UBE8 whole entry, looked up): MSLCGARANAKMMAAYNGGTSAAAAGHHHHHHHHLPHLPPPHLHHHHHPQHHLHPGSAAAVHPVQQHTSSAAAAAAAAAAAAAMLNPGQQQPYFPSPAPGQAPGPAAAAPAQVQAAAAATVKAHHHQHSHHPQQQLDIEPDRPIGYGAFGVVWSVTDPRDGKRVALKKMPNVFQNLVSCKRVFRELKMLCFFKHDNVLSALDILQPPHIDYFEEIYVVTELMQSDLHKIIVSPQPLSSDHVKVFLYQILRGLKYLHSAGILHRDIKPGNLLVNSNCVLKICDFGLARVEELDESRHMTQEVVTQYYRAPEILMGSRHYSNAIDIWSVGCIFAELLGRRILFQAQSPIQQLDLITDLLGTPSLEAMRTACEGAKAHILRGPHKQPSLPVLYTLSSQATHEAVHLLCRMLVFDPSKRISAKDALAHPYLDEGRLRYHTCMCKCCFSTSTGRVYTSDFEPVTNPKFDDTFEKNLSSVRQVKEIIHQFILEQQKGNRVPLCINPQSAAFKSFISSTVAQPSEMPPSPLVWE

Cc1cc2nc(NCCCO)n(CC(=O)c3cc(C(C)(C)C)c(O)c(C(C)(C)C)c3)c2cc1C
inactive: TTK 100% | RIOK2 96% | NEK5 91% | [1] 89% | ADCK4 100% | [2] 90% | [3] 100% | TXK 99% | SRPK3 87% | [4] 100% | MERTK 100% | [5] 86% | [6] 85% | DRAK2 100% | LATS2 89% | [7] 100% | [8] 99% | [9]; RPS6KA5(Kin.Dom.1) 100% | [9]; RPS6KA5(Kin.Dom.2) 100% | MLK1 100% | [10] 99% | MYLK 80% | DCAMKL2 89% | EPHA5 87% | PAK4 92% | TIE1 100% | [11] 100% | PFTAIRE2 53% | [12] 93% | YANK2 100% | CDC2L2 100% | [13] 67% | SNARK 80% | [14] 100% | [15] 91% | DDR2 65% | [16] 81%
